The text below walks through data of ChEMBL document CHEMBL5465560, “Selectivity Literature for EUbOPEN Chemogenomic Library” (2024).

Where only a bound is given, the exact number is not on record here.

Assay [1] addresses Serine/threonine-protein kinase PLK1 (Homo sapiens, UniProt P53350). The assay can be described thus: Selectivity interaction (Kinase panel (Z-LYTE Assay)) EUB0001632a PLK1. Conditions: at 10 µM.
Assay [2] addresses Vasopressin V1a receptor (Homo sapiens) (UniProt P37288). The assay can be described thus: Selectivity interaction (Panel of non-epigenetic targets (kinases, GPCRs, ion channels, and transporters, Eurofins) ) EUB0000271b AVPR1A. Conditions: at 1 µM.
The target in assay [3] is Casein kinase II subunit alpha (Homo sapiens, UniProt P68400). The assay can be described thus: Selectivity interaction (KinomeScan (DiscoverX)) EUB0001079a CSNK2A1. The following applies: at 1 µM.
The target of assay [4] is Hepatocyte growth factor receptor (Homo sapiens, UniProt P08581). Nature of the assay: Selectivity interaction (Kinase panel (literature)) EUB0001199aCl MET. The following applies: at 1 µM.
Sequence of Hepatocyte growth factor receptor (P08581 whole entry): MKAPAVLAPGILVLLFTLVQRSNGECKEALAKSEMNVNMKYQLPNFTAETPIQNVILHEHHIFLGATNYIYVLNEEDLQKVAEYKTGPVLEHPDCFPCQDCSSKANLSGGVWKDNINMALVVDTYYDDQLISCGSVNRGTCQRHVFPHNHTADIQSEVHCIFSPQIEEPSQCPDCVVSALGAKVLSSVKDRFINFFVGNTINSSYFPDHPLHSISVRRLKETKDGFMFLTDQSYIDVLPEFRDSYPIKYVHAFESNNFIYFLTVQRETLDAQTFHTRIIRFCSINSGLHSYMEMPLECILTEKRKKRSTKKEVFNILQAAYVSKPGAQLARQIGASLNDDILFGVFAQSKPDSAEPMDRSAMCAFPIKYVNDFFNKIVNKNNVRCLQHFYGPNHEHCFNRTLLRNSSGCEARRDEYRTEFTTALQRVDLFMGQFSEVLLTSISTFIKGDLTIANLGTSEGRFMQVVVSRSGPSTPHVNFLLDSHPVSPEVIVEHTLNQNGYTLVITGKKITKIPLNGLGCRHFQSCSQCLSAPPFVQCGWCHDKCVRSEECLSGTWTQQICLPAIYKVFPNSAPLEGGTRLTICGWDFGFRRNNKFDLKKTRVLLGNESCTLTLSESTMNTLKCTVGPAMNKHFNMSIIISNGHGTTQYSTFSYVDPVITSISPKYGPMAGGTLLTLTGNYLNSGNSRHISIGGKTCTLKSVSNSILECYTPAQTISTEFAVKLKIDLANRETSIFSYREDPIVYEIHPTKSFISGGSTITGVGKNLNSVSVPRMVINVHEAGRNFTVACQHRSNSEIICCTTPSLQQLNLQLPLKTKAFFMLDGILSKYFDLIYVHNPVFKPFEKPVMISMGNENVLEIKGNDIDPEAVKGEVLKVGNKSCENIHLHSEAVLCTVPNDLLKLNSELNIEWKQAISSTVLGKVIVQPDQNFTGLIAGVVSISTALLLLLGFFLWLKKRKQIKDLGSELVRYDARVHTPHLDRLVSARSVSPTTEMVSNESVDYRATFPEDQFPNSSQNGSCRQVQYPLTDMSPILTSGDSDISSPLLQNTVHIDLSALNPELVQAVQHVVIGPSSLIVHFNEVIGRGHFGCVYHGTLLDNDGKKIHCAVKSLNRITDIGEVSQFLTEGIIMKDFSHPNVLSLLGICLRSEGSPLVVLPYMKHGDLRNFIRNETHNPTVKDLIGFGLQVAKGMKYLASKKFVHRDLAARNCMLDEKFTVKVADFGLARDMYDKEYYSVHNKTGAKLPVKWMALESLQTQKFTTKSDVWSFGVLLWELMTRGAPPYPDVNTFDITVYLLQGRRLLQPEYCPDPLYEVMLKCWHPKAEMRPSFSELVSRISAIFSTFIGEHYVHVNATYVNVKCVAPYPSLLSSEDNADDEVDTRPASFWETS
Assay [5] addresses Tyrosine-protein kinase HCK (Homo sapiens) (UniProt P08631). Nature of the assay: Selectivity interaction (ActivX KiNativ screen (kinase selectivity in THP-1 cell lysates)) EUB0000639a HCK. The format is subcellular. The following applies: lysate, at 1 µM.
For assay [6], the target named is Serine/threonine-protein kinase VRK2 (Homo sapiens) (UniProt Q86Y07). The assay can be described thus: Selectivity interaction (ActivX KiNativ screen (kinase selectivity in THP-1 cell lysates)) EUB0000639a VRK2. In kind it is subcellular. Conditions: lysate.
Sequence of Serine/threonine-protein kinase VRK2 (Homo sapiens) (Q86Y07 whole entry): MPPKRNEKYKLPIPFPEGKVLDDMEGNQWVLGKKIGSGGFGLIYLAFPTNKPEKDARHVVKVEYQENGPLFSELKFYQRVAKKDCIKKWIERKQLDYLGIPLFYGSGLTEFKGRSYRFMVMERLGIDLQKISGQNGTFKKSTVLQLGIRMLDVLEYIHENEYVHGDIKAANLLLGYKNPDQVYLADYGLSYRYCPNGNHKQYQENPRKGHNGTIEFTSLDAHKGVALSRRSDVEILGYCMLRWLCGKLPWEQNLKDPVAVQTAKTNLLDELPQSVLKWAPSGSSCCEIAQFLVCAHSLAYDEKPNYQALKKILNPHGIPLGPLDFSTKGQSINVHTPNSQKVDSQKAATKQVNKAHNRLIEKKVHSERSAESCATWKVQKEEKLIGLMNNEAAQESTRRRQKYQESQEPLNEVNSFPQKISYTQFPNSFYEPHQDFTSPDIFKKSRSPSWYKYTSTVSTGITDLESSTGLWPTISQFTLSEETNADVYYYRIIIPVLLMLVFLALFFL
In assay [7] the target is Protein polybromo-1 (Homo sapiens) (UniProt Q86U86). Nature of the assay: Selectivity interaction (Human bromodomain panel (DSF assay)) EUB0000233b PBRM1.
Sequence of Protein polybromo-1 (Homo sapiens) (Q86U86 whole entry): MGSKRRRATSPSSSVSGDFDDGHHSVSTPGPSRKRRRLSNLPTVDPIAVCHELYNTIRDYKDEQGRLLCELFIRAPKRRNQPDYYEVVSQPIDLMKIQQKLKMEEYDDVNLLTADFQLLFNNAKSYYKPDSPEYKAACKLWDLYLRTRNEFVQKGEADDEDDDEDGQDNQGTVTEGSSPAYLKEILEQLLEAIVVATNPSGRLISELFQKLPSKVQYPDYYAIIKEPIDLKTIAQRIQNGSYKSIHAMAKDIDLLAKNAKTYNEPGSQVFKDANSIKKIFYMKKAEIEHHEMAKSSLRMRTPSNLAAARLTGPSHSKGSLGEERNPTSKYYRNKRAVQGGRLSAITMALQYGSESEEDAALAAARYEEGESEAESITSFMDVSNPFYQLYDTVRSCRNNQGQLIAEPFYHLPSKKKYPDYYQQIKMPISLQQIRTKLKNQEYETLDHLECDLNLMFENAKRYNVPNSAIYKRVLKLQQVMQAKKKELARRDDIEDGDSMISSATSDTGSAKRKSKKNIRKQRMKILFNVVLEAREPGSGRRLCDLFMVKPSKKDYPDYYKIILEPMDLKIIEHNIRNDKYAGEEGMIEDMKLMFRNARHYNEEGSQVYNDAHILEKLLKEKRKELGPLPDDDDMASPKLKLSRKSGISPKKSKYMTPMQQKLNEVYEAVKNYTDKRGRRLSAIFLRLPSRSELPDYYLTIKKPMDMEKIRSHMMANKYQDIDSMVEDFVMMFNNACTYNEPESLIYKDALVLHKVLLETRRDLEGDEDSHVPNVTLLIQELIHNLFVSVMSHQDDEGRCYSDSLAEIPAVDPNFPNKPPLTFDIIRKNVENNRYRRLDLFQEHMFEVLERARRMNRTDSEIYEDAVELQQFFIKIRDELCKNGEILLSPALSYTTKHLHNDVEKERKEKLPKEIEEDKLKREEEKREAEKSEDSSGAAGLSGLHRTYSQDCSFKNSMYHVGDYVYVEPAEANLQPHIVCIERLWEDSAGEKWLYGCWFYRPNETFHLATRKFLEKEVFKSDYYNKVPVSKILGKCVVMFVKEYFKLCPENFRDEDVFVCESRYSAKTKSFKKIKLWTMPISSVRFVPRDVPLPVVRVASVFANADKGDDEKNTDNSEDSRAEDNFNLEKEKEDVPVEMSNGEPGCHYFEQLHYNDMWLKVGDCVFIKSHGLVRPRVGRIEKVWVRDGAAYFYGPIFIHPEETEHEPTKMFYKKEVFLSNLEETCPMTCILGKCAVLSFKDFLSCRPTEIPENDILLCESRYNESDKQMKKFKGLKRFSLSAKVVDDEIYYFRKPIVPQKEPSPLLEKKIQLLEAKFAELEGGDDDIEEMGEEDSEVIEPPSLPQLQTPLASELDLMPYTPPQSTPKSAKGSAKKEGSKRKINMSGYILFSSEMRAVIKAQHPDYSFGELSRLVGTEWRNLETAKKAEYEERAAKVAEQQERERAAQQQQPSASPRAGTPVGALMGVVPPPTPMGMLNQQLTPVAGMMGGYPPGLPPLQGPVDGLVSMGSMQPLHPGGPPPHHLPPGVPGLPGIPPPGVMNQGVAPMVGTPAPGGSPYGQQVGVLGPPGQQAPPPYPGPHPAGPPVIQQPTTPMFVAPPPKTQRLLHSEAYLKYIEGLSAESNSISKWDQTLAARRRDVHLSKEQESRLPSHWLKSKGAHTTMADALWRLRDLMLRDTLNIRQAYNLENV
Assay [8] deals with T1, Histone-arginine methyltransferase CARM1 (Homo sapiens) (UniProt Q86X55).
T1 sequence (whole entry): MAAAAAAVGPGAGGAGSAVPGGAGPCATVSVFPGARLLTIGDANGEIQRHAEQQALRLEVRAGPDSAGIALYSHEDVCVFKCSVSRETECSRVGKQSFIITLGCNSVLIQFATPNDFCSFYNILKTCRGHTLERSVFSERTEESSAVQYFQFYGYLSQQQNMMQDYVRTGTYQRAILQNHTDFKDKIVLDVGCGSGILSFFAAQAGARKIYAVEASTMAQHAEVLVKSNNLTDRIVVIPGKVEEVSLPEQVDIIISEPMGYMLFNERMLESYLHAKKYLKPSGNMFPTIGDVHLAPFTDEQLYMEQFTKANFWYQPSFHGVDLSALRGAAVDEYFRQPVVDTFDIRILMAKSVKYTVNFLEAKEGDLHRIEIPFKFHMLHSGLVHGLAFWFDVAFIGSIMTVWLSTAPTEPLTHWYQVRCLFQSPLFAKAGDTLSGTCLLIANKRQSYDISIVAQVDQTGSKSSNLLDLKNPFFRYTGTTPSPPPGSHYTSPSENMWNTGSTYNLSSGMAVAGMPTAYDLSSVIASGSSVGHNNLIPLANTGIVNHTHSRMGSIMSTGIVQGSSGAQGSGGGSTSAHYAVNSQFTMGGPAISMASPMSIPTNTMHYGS
Nature of the assay: Selectivity interaction (Transferase panel (protein, RNA, and DNA methyltransferases. and EP300 (acetyltransferase))) EUB0000270b CARM1.

The target of assay [9] is T2, Calcium/calmodulin-dependent protein kinase type IV (Homo sapiens) (UniProt Q16566).
T2 sequence (whole entry): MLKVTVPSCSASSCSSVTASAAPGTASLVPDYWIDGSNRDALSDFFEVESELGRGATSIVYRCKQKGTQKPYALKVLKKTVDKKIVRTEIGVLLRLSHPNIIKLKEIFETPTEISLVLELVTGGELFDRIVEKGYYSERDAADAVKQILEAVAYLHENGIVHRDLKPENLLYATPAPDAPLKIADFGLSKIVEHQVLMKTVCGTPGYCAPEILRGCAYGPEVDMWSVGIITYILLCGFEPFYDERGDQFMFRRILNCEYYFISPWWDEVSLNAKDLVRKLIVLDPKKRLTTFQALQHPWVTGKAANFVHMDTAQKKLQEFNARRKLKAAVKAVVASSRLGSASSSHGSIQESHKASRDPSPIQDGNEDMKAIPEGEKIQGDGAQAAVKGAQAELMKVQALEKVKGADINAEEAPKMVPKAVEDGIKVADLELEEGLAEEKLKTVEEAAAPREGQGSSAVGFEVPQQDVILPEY
The assay can be described thus: Selectivity interaction (Upstate Kinase Profiler service (Millipore)) EUB0000056c CAMK4. The following applies: at 1 µM.

In assay [10] the target is T3, Mitogen-activated protein kinase kinase kinase 7 (Homo sapiens) (UniProt O43318).
T3 sequence (whole entry): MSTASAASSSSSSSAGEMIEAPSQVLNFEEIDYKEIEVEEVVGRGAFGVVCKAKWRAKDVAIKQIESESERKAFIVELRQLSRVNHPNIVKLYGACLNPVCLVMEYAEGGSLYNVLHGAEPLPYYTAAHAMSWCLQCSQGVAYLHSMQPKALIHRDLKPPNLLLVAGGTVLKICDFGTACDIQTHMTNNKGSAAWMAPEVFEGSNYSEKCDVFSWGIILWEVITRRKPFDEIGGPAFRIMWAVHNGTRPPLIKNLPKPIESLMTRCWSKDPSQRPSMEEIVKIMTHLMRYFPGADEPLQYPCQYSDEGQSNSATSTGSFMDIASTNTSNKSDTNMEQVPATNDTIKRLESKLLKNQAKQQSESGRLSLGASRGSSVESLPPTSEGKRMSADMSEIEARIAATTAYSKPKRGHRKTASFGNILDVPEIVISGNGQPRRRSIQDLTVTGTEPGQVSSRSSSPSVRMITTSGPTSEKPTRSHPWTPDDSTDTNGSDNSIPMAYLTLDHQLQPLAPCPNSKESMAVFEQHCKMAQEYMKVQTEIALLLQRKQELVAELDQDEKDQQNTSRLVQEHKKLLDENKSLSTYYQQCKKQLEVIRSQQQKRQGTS
The assay can be described thus: Selectivity interaction (KinomeScan (DiscoverX)) EUB0000595a MAP3K7. Conditions: at 10 µM.

Sequence of Tyrosine-protein kinase HCK (Homo sapiens) (P08631 2-526 limits assumed): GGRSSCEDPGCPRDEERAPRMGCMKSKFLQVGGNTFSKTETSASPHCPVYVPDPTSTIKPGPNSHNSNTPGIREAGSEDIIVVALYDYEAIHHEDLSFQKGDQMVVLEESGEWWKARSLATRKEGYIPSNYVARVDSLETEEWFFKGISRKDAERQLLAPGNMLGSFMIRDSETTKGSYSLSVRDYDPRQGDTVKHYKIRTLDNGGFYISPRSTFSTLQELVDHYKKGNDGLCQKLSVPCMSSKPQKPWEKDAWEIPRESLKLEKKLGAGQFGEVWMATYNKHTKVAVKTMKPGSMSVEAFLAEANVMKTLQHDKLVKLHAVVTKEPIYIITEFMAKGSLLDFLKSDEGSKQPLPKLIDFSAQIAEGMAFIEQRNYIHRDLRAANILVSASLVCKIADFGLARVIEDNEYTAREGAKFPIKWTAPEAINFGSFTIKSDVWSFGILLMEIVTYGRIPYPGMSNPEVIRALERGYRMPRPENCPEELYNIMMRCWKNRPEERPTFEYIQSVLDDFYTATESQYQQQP
Sequence of Serine/threonine-protein kinase PLK1 (P53350 whole entry): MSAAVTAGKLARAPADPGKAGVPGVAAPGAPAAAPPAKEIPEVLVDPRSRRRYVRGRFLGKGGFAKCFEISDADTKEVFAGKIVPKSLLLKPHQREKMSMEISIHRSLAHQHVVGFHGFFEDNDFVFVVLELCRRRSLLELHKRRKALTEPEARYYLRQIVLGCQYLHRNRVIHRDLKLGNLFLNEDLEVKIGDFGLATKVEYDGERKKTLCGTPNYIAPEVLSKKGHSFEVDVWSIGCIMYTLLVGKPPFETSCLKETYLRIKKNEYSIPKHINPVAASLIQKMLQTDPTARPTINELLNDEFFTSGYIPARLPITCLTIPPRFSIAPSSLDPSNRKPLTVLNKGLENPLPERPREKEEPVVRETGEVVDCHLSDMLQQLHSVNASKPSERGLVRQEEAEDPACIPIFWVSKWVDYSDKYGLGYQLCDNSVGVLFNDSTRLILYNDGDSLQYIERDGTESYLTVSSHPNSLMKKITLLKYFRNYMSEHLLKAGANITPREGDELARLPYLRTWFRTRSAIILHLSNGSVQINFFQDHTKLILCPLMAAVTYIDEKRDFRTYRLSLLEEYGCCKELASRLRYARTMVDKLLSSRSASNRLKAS

Compound `Cn1cc(-n2cnc3c(NCc4nc5cc(Cl)c(Cl)cc5[nH]4)nc(N4CCOCC4)nc32)cn1` yielded a % of control in assay [1] of 1.25%.

`Cc1cc(C)cc([C@@H]2c3cc(C)ccc3NC(=O)CN2C(=O)c2ccc(Br)s2)c1`: the % of inhibition in assay [2] is -5%. Consider `Nc1cnc(N2CCc3cc(S(=O)(=O)Nc4c(F)cc(Cl)cc4F)cc(N4CCCC4=O)c32)nc1` [TP-020n], for which the % of control in assay [3] was found to be 100%. In the case of `CN1Cc2nccc(-c3cn(C)nc3-c3ccc(F)cc3)c2C1=O`, the % of inhibition in assay [4] amounted to 10%.

Turning to `CC[C@@H]1[C@H](F)C(=O)N[C@@H]1COc1nccc2cc(C(N)=O)c(OC)cc12` [ZIMLOVISERTIB], the % of inhibition in assay [5] was -16.5%; in [6] (at 0.01 µM), -16.6%; in assay [6] (at 0.04 µM), -6%; in assay [6] (at 0.2 µM), -28.4%; in assay [6] (at 1 µM), -14.8%; in assay [6] (at 5 µM), 8.1%. Regarding `CN(C)CCCOc1ccc(-c2cc(NCCCn3cccn3)nc(S(C)(=O)=O)n2)cc1`, the dTM in [7] was below 2 K. Regarding `Cc1cc(CN)cc(C)c1-c1ncn(C)c1-c1cncn1C`, the values for the % activity in assay [8] (at 1 µM) and in [8] (at 10 µM) were above 90% and above 80%, respectively. As for `Cc1ccc(-c2ccc3c(ccc4sc5c(c43)NC[C@@H](C)NC5=O)n2)cn1`, the % of inhibition in assay [9] was determined as 15%. As to `COCC(=O)NC/C=C/c1ccc2ncnc(Nc3ccc(Oc4ccc(C)nc4)c(C)c3)c2c1` [CP-724714], in assay [10], the % of control came to 100%.
